Patent publication US9714244B2, “Substituted pyrido[4,3-d]pyrimidines as Wee-1 inhibitors” (ALMAC DISCOVERY LIMITED, priority 2013, dated 2017)
pIC50: −log10 of the molar value. Structures can show the parent of a compound that is named as a salt. Where two headings read alike, the source gives them in different places.

Experiments:
[1] = target: human ether a go-go related gene (hERG) K+ channel (Homo sapiens (Human), UniProt Q12809); assay: hERG inhibition, IonWorks patch clamp electrophysiology; type: cell-based; details: 8-point curve from 11 μM
Sequence of human ether a go-go related gene (hERG) K+ channel (Q12809 whole entry): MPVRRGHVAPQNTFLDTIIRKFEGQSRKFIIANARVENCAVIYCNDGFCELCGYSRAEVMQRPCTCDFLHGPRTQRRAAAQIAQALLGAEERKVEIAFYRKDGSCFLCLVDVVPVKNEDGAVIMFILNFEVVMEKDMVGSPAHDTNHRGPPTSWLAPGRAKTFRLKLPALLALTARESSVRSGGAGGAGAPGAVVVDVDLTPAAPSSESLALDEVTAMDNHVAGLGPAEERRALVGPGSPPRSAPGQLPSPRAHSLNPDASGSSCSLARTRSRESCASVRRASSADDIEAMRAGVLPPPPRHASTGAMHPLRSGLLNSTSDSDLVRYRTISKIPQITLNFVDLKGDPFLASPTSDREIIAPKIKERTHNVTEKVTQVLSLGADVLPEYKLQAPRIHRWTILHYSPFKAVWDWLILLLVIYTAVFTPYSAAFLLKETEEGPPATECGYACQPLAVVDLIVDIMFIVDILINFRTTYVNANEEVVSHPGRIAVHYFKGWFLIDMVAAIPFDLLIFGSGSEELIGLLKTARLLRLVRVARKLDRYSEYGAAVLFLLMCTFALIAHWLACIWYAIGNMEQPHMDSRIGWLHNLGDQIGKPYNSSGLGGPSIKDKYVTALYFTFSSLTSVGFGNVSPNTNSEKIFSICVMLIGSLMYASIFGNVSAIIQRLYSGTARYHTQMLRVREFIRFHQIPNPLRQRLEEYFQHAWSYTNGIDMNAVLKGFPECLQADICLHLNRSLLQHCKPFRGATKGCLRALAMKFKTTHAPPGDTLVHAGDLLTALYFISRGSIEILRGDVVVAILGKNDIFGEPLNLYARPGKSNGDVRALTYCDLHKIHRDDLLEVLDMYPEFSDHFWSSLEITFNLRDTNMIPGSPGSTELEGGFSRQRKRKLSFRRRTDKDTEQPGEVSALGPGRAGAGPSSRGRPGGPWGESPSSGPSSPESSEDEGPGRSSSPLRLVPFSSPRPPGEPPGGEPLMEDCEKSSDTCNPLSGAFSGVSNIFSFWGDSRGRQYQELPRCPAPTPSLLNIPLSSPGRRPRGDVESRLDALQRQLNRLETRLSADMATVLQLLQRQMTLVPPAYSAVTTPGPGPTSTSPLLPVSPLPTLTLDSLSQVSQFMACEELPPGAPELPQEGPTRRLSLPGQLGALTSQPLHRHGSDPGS
Procedure: Compounds were tested for inhibition of the human ether a go-go related gene (hERG) K^+ channel using IonWorks patch clamp electrophysiology at Essen BioScience.

[2] = system: phospho-cdc2 (Tyr15) in HT-29 cells; assay: Effect on phosphorylation of cdc2 at Tyr15 in HT-29 cells (PathScan ELISA); type: cell-based; details: Homo sapiens, HT-29, 8 h; HT29 cells, eight hours incubation; read-out: HT29 pCDC2 activity
Procedure: Method 2: Determining the effect of compounds on the phosphorylation of cdc2 at Tyr15
The colorectal cancer cell lines HT-29 and HCT-116 were purchased from the ATCC and routinely maintained in McCoy's Medium (Invitrogen) supplemented with 10% Foetal Calf Serum.
The cells were trypsinised from their growing vessel and counted, 100 μL of cell suspension containing 6000 cells was pipetted into black 96 well Co-star plates and incubated overnight to allow adherence to the surface at a temperature of 37° C. and an atmosphere of 5% CO2. Test compounds were formulated in DMSO and diluted in foetal calf serum supplemented medium. Incubating medium was removed by aspiration and diluted drug supplemented medium added to each well.
The plate was returned to the incubator for an additional eight hours at 37° C. and an atmosphere of 5% CO2. Post incubation, the drug supplemented medium was aspirated from each well and the cells were washed once in ice-cold phosphate buffered saline (PBS). 100 μL of cell lysis buffer (Cell Signalling Technologies #9803) containing 20 mM Tris, 150 mM NaCl, 1 mM EDTA, 1 mM EGTA, 1% Triton-X100, 2.5 mM sodium pyrophosphate, 1 mM glycerophosphate, 1 mM Na3VO4 and 1 μg/mL leupeptin was added to each well of the 96 well plate and incubated at 4° C. for 30 min. The samples on the plate were snap frozen at −80° C. until required.
Immediately before the continuation of the assay, the sample plate was thawed and centrifuged at 4° C. for 10 min and the supernatant transferred to secondary tubes or 96 well plate.
Cell supernatant was mixed in a ratio of 1:1 with sample dilutent buffer and vortexed for one minute. 100 μL of diluted sample was pipetted into pre-coated plates containing a rabbit polyclonal antibody for phospho-cdc2 (Tyr15) (Cell Signalling Technologies PathScan kit #7176). The plate was sealed and incubated overnight at 4° C.
The plate seal was removed and the well contents aspirated, followed by 3×5 min washes with 200 μL of diluted wash buffer. Between each wash the plate was tapped firmly onto blotting paper to ensure the removal of all kit solution. 100 μL of kit detection antibody was added to each well and the plate re-sealed and incubated at 37° C. for 1 h. Post incubation the plate was washed and processed in a similar manner to that previously described.
100 μL of horseradish peroxidise-linked secondary antibody was added to each test well, the plate sealed and incubated for thirty minutes at 37° C. Post incubation, the plate was washed as previously stated, followed by the addition of 100 μL of 3,3′,5,5′ tetramethylbenzidine (TMB reagent). The plate was sealed and incubated at RT for 30 min.
100 μL of stop solution was added to each well and the underside of the plate wiped with a lint-free tissue, prior to spectrophotometric determination. Absorbance from each well was read at 450 nm within 30 min of the addition of the stop solution.
The percentage of phospho-cdc2 was calculated compared to DMSO control and plotted versus the concentration of inhibitor using GraphPad Prism. Data was fitted using non-linear regression analysis and IC50 values generated.

[3] = target: Wee-1 kinase (Homo sapiens (Human), UniProt P30291); assay: Measurement of Wee-1 kinase activity (ADP-Glo); type: biochemical
Sequence of Wee-1 kinase (P30291 whole entry): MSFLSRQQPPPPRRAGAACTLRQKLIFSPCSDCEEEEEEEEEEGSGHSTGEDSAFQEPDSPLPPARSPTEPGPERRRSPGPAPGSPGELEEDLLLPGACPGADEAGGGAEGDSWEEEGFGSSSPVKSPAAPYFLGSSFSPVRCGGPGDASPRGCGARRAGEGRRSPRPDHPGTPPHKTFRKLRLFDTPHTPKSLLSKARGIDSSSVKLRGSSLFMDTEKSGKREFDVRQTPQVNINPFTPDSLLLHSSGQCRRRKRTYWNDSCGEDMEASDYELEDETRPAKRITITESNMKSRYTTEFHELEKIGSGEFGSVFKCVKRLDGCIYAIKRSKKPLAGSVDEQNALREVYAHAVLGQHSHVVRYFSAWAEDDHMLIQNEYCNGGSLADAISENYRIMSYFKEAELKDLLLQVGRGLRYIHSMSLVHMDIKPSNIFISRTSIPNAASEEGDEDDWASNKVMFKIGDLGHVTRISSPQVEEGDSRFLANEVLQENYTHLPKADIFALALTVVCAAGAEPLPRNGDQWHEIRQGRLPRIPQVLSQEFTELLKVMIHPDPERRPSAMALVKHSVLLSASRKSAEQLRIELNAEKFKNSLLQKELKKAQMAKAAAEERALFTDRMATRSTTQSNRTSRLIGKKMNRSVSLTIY
Procedure: Method 1: Measurement of Wee-1 kinase activity
In the measurement of Wee-1 activity, a commercial peptide Poly(Lys Tyr(4:1)) hydrobromide was purchased from Sigma Aldrich and used as the substrate. Activated Wee-1 kinase was purchased from Invitrogen (PV3817) and an ADP-Glo luminescent kit was purchased from Promega.
All reactions took place in […] volumes in reaction buffer containing 40 mM Tris-HCl and 20 mM magnesium chloride, supplemented with 0.1 mg/mL bovine serum albumin and 2 mM DTT. Compounds were serially diluted in buffer and 5 μL of each concentration pipetted into a white 384 well plate (Sigma Aldrich M6186). A 5 μL aliquot of the Wee-1 enzyme was added to each well and the plate centrifuged for 1 min to ensure mixing of the enzyme and inhibitor.
The plate was incubated at room temperature for 30 minutes before the addition of 2.0 μg/mL of substrate and 30 μM ATP in a 5 μL aliquot. The plate was centrifuged for one minute and incubated for 1 h at RT.
15 μL of ADP-Glo stop reagent was added to each well to quench the reaction and deplete unconverted ATP. The plate was incubated for a further 40 min in the dark at RT.
30 μL of ADP-Glo kinase detection reagent was added to each well, converting ADP to ATP, catalysing the generation of luciferin by luciferase. The plate was shaken for 1 min, and incubated in the dark for an additional hour.
Luminescence from each well was detected using the Biotek Synergy4 HD plate reader and the percentage inhibition of kinase activity calculated for each inhibitor tested. Positive (kinase only) and negative (no kinase) controls were added to each plate to ensure specific interaction of kinase and inhibitor. The IC50 concentration for each inhibitor was calculated by plotting the percentage kinase inhibition against concentration of inhibitor and the curve generated by non-linear regression fitting.

[4] = CLint estimates using human liver microsomes; type: in vitro ADME; details: pH 7.4, read-out: HLM activity (HLM CLint)
Procedure: Method for the Determination of CLint Estimates Using Human Liver Microsomes
Test compounds (final concentration=1 μM; final DMSO concentration=0.1%) were incubated in 0.1M phosphate buffer pH 7.4 with human liver microsomes (0.5 mg of protein/mL) at 37° C. Reactions were started by addition of NADPH in 0.1M phosphate buffer pH 7.4 (final concentration 1 mM). 40 μL aliquots were removed at 2, 5, 10, 15, 20, 30, 40 and 50 min. Reactions were quenched in 80 μL of ice-cold methanol. Samples were subsequently frozen overnight then centrifuged at 3500 rpm for 20 min at 4° C. The supernatants were removed and transferred into analytical plates and analysed by LC/MS/MS.
All samples were analysed on a Waters Acquity I-Class coupled to a Waters Xevo TQD mass spectrometer. A Waters BEH C18 2.1×50 mm 1.7 μm column was used and mobile phases were water and methanol containing 0.1% formic acid as modifier. Analysis was by multiple reaction monitoring and conditions were optimised for each test compound.
From a plot of ln peak area against time, the gradient of the line is determined. Subsequently, half-life and intrinsic clearance are calculated using the following equations.

[5] = Human hepatocyte assay CLint; type: in vitro ADME; details: hepatocytes
Procedure: (§1) Compounds of the present invention have good stability in human and/or rat hepatocyte incubations. In particular, representative examples 7, 8, 13, 18, 20 have CLint of <20 μL/min/10^6 cells in a human hepatocyte assay and/or <40 μL/min/10^6 cells in a rat hepatocyte assay.

[6] = Rat hepatocyte assay CLint; type: in vitro ADME; details: hepatocytes
Procedure: as §1

Structure (SMILES)	pIC50 [2]	microsomal CLint at 1 μM [4]	hepatocyte CLint [5]	pIC50 ([3]; read-out: Wee-1 IC50 activity)	hepatocyte CLint [6]	pIC50 [1]	pIC50 [3]
CNCCOc1ccc(Nc2ncc3c(=O)n(-c4c(Cl)cccc4Cl)ccc3n2)cc1 [Example 16, 6-(2,6-Dichlorophenyl)-2-((4-(2-(methylamino)ethoxy)phenyl)amino)pyrido[4,3-d]pyrimidin-5(6H)-one, HCl]	6.00 to 7.00	≤ 20 µL/min/mg				≤ 5.00	6.70 to 8.00
CN1CCN(c2ccc(Nc3ncc4c(=O)n(-c5c(Cl)cccc5Cl)ccc4n3)cc2CO)CC1 [Example 8, 6-(2,6-Dichlorophenyl)-2-((3-(hydroxymethyl)-4-(4-methylpiperazin-1-yl)phenyl)amino)pyrido[4,3-d]pyrimidin-5(6H)-one]	6.00 to 7.00	≤ 20 µL/min/mg	< 20 µL/min/1e6 cells	> 8.00	< 40 µL/min/1e6 cells		
O=c1c2cnc(Nc3ccc(N4CCN(CCO)CC4)cc3)nc2ccn1-c1c(Cl)cccc1Cl [Example 21, 6-(2,6-Dichlorophenyl)-2-((4-(4-(2-hydroxyethyl)piperazin-1-yl)phenyl)amino)pyrido[4,3-d]pyrimidin-5(6H)-one]	≥ 7.00	> 20 µL/min/mg		> 8.00			
CN1CCC(c2ccc(Nc3ncc4c(=O)n(-c5c(Cl)cccc5Cl)ccc4n3)cc2)CC1 [Example 10, 6-(2,6-Dichlorophenyl)-2-((4-(1-methylpiperidin-4-yl)phenyl)amino)pyrido[4,3-d]pyrimidin-5(6H)-one, HCl]	6.00 to 7.00	≤ 20 µL/min/mg		> 8.00		5.00 to 6.00	
O=c1c2cnc(Nc3cc(F)c(N4CCNCC4)c(F)c3)nc2ccn1-c1c(Cl)cccc1Cl [Example 30, 6-(2,6-Dichlorophenyl)-2-((3,5-difluoro-4-(piperazin-1-yl)phenyl)amino)pyrido[4,3-d]pyrimidin-5(6H)-one]	≤ 6.00	≤ 20 µL/min/mg		6.70 to 8.00			
CC(C)N1CCN(c2ccc(Nc3ncc4c(=O)n(-c5c(Cl)cccc5Cl)ccc4n3)cc2)CC1 [Example 17, 6-(2,6-Dichlorophenyl)-2-((4-(4-isopropylpiperazin-1-yl)phenyl)amino)pyrido[4,3-d]pyrimidin-5(6H)-one]	6.00 to 7.00	> 20 µL/min/mg		6.70 to 8.00		5.00 to 6.00	
COc1cc(Nc2ncc3c(=O)n(-c4c(Cl)cccc4Cl)ccc3n2)ccc1N1CCN(C)CC1 [Example 12, 6-(2,6-Dichlorophenyl)-2-((3-methoxy-4-(4-methylpiperazin-1-yl)phenyl)amino)pyrido[4,3-d]pyrimidin-5(6H)-one, HCl]	≥ 7.00	> 20 µL/min/mg				5.00 to 6.00	6.70 to 8.00
O=c1c2cnc(Nc3ccc(N4CCOCC4)cc3)nc2ccn1-c1c(Cl)cccc1Cl [Example 19, 6-(2,6-Dichlorophenyl)-2-((4-morpholinophenyl)amino)pyrido[4,3-d]pyrimidin-5(6H)-one]	≤ 6.00	> 20 µL/min/mg				≤ 5.00	6.70 to 8.00
CN(C)CCc1ccc(Nc2ncc3c(=O)n(-c4c(Cl)cccc4Cl)ccc3n2)cc1 [Example 11, 6-(2,6-Dichlorophenyl)-2-((4-(2-(dimethylamino)ethyl)phenyl)amino)pyrido[4,3-d]pyrimidin-5(6H)-one, HCl]	6.00 to 7.00	> 20 µL/min/mg		6.70 to 8.00		5.00 to 6.00	

Further lines, with some results ahead:

pIC50 [2]	microsomal CLint at 1 μM [4]	hepatocyte CLint [5]	pIC50 ([3]; read-out: Wee-1 IC50 activity)	hepatocyte CLint [6]	Structure (SMILES)	pIC50 [1]	pIC50 [3]
6.00 to 7.00	≤ 20 µL/min/mg		> 8.00		Cc1cn(-c2c(Cl)cccc2Cl)c(=O)c2cnc(Nc3ccc(N4CCNCC4)cc3)nc12 [Example 2, 6-(2,6-Dichlorophenyl)-8-methyl-2-((4-(piperazin-1-yl)phenyl)amino)pyrido[4,3-d]pyrimidin-5(6H)-one]	≤ 5.00	
6.00 to 7.00	≤ 20 µL/min/mg		> 8.00		Cc1cc(Nc2ncc3c(=O)n(-c4ccccc4Cl)ccc3n2)ccc1N1CCNCC1 [Example 24, 6-(2-Chlorophenyl)-2-((3-methyl-4-(piperazin-1-yl)phenyl)amino)pyrido[4,3-d]pyrimidin-5(6H)-one]		
≥ 7.00	> 20 µL/min/mg		> 8.00		NCC#Cc1cn(-c2c(Cl)cccc2Cl)c(=O)c2cnc(Nc3ccc(N4CCOCC4)cc3)nc12 [Example 22, 8-(3-Aminoprop-1-yn-1-yl)-6-(2,6-dichlorophenyl)-2-((4-morpholinophenyl)amino)pyrido[4,3-d]pyrimidin-5(6H)-one]		
6.00 to 7.00	≤ 20 µL/min/mg		> 8.00		O=c1c2cnc(Nc3ccc(N4CCNCC4)c(Cl)c3)nc2ccn1-c1c(Cl)cccc1Cl [Example 27, 2-((3-Chloro-4-(piperazin-1-yl)phenyl)amino)-6-(2,6-dichlorophenyl)pyrido[4,3-d]pyrimidin-5(6H)-one]		
6.00 to 7.00	≤ 20 µL/min/mg		> 8.00		O=c1c2cnc(Nc3ccc(N4CCNCC4)cc3)nc2c(Br)cn1-c1c(Cl)cccc1Cl [Example 9, 8-Bromo-6-(2,6-dichlorophenyl)-2-((4-(piperazin-1-yl)phenyl)amino)pyrido[4,3-d]pyrimidin-5(6H)-one]		
≥ 7.00	≤ 20 µL/min/mg		> 8.00		Cc1cc(Nc2ncc3c(=O)n(-c4c(Cl)cccc4Cl)cc(C#CCO)c3n2)ccc1N1CCNCC1 [Example 14, 6-(2,6-Dichlorophenyl)-8-(3-hydroxyprop-1-yn-1-yl)-2-((3-methyl-4-(piperazin-1-yl)phenyl)amino)pyrido[4,3-d]pyrimidin-5(6H)-one]		
